# Tests used:
# [1] = target: EZH1 (Homo sapiens, UniProt Q92800); assay: AlphaLISA enzyme activity inhibition, EZH1; format: biochemical; settings: for inhibition at 0.005 µM: 5nM test substance
# Procedure: (§1) In order to confirm the EZH1 and/or EZH2 activity inhibitory effect of the 1,3-benzodioxole derivative compounds represented by chemical formula I of the present invention, the activity was measured using an AlphaLISA test method. The test substance dissolved in dimethylsulfoxide (DMSO) was diluted in a test solution (20 mM Tris pH 8.0, 0.1% BSA, 0.01% Triton X-100, 0.5 mM DTT) according to a final treatment concentration (5 nM or 10 nM) and mixed with EZH1 and EZH2, respectively, and then histone H3 peptide and S-adenosylmethionine (SAM) were added to initiate an enzyme reaction. An acceptor bead was added thereto after reaction for two hours and subjected to an additional reaction for one hour, after which a donor bead was added thereto. After an additional reaction for 30 minutes, the reaction was completed. An activity was measured using the Magellan program on a Spark10M instrument. DMSO was used as a control group, an inhibition rate of enzyme activity was calculated using a following equation, and the results thereof are shown in Table 1 below. [formula]
# [2] = target: EZH2 (Homo sapiens, UniProt Q15910); assay: AlphaLISA enzyme activity inhibition, EZH2; format: biochemical; settings: for inhibition at 0.005 µM: 5nM test substance
# EZH2, sequence (Q15910 whole entry, species assumed): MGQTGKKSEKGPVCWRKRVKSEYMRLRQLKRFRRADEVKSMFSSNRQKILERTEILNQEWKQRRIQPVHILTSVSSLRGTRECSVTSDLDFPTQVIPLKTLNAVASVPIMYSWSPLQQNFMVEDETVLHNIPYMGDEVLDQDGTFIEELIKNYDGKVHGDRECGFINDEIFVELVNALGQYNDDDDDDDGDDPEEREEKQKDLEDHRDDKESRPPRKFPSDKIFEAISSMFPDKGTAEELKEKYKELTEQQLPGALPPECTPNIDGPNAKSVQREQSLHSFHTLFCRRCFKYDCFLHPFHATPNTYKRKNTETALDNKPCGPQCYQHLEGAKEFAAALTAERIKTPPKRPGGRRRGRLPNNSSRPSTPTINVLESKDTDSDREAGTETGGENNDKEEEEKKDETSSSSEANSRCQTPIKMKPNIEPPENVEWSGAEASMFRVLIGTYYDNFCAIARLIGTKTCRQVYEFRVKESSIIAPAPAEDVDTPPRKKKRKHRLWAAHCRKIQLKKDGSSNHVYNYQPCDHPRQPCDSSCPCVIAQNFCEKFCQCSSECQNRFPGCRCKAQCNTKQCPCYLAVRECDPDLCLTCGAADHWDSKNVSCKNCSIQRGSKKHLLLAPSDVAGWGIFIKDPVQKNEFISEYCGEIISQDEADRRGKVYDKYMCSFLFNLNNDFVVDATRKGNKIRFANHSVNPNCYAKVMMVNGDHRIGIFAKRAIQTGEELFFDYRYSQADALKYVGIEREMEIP
# EZH2, sequence (O75530 whole entry partner, species assumed): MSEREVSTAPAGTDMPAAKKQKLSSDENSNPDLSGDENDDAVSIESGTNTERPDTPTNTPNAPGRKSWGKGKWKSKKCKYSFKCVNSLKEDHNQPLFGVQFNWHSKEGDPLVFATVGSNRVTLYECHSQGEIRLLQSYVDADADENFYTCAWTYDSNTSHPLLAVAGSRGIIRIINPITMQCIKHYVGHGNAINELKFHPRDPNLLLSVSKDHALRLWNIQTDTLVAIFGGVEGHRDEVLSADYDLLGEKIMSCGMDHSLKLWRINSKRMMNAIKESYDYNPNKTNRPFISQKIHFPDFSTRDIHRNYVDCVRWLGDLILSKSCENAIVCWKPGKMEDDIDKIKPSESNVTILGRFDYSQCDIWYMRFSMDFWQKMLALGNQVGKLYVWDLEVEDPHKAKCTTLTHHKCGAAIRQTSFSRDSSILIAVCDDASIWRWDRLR
# EZH2, sequence (Q15022 whole entry partner, species assumed): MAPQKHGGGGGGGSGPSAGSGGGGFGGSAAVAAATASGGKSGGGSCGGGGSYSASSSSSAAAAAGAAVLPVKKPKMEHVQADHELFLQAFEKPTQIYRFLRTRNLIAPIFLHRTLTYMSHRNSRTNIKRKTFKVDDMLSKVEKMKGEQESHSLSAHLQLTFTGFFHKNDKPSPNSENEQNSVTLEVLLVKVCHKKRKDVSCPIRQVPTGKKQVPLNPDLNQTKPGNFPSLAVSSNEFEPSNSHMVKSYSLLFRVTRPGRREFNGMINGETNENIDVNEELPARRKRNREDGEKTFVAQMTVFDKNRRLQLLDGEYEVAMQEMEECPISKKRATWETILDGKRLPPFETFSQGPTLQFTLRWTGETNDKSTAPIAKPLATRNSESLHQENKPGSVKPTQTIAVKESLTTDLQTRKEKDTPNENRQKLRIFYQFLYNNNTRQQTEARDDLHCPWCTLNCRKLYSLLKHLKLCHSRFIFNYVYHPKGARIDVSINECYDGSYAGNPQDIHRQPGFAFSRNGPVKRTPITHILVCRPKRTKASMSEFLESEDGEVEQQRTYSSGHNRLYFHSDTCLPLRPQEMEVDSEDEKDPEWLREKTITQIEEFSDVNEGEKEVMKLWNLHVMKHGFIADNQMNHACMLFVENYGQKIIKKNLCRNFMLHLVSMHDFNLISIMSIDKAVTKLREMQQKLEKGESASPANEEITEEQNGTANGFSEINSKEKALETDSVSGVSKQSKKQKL
# Procedure: as §1
# [3] = system: Lovo cells; assay: Cancer cell proliferation inhibition (Cell Counting Kit-8), colorectal cancer cell line; format: cell-based; settings: 1000 nM, cultured seven to 11 days; for inhibition at 1 µM: Homo sapiens, LoVo, 264 h, read-out: % inhibition rate LoVo
# Summary of the method: (§2)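 Cells grown in RPMI1640, McCoy's 5a, L-15 or DMEM with 10% fetal bovine serum, seeded at 100 to 1,000 cells per well, then exposed to test compound at 1000 nM for seven to 11 days. Viability read by CCK-8; % inhibition = {1−(test/control)} × 100.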
# [4] = system: G401 cells; assay: Cancer cell proliferation inhibition (Cell Counting Kit-8), rhabdoid tumor cell line; format: cell-based; settings: 1000 nM, cultured seven to 11 days; for inhibition at 1 µM: Homo sapiens, G-401, 264 h, read-out: % inhibition rate G401
# Summary of the method: (§3)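 Cells grown in RPMI1640, McCoy's 5a, L-15 or DMEM with 10% FBS, seeded at 100 to 1,000 cells/well and treated with test substance at 1000 nM for 7 to 11 days. Viability read by CCK-8; % inhibition = {1−(test/control)} × 100.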
# [5] = system: MKN-45 cells; assay: Cancer cell proliferation inhibition (Cell Counting Kit-8), gastric cancer cell line; format: cell-based; settings: Homo sapiens, MKN-45, 264 h, 1000 nM, cultured seven to 11 days; read-out: % inhibition rate MKN -45
# Summary of the method: as §3
# [6] = system: SW-13 cells; assay: Cancer cell proliferation inhibition (Cell Counting Kit-8), adrenal cancer cell line; format: cell-based; settings: Homo sapiens, SW13, 264 h, 1000 nM, cultured seven to 11 days; read-out: % inhibition rate SW-13
# Summary of the method: as §2
# [7] = system: MIA-PaCa-2 cells; assay: Cancer cell proliferation inhibition (Cell Counting Kit-8), pancreatic cancer cell line; format: cell-based; settings: Homo sapiens, MIA PaCa-2, 264 h, 1000 nM, cultured seven to 11 days; read-out: % inhibition rate MIA-Paca2
# Summary of the method: as §2
# [8] = system: NCI-H1299 cells; assay: Cancer cell proliferation inhibition (Cell Counting Kit-8), lung cancer cell line; format: cell-based; settings: Homo sapiens, NCI-H1299, 264 h, 1000 nM, cultured seven to 11 days; read-out: % inhibition rate NCI-H129 9
# Summary of the method: as §2
# EZH1, sequence (Q92800 whole entry, species assumed): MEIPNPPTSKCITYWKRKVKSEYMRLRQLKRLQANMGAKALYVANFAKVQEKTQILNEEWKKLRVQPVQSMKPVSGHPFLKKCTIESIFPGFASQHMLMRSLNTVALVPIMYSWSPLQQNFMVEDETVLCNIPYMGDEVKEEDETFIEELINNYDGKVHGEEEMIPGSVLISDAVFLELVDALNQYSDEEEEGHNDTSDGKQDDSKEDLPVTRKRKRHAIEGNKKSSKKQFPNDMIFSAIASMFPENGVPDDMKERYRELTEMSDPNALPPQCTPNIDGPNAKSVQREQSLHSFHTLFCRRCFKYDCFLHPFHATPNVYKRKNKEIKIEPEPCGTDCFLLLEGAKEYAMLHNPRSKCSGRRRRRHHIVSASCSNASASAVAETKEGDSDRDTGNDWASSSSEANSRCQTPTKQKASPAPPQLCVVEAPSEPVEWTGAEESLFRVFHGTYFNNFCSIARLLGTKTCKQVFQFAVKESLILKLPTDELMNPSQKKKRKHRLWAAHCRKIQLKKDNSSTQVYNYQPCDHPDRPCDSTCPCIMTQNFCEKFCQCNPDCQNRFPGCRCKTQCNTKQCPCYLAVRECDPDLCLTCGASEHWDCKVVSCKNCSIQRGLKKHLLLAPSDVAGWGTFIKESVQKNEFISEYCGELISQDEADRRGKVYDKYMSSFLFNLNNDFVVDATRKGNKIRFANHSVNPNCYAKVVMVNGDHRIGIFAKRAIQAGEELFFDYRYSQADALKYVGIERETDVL
# EZH1, sequence (O75530 whole entry partner, species assumed): as the sequence (O75530 whole entry partner, species assumed) above
# EZH1, sequence (Q15022 whole entry partner, species assumed): as the sequence (Q15022 whole entry partner, species assumed) above
Compound,inhibition at 0.005 µM [1] [%],inhibition at 0.005 µM [2] [%],inhibition at 0.01 µM ([1]; 10nM test substance) [%],inhibition at 0.01 µM ([2]; 10nM test substance) [%],inhibition at 1 µM [3] [%],inhibition at 1 µM [4] [%],inhibition at 1 µM [5] [%],inhibition at 1 µM [6] [%],inhibition at 1 µM [7] [%],inhibition at 1 µM [8] [%],% inhibition rate LoVo ([3]; 1 µM),% inhibition rate G401 ([4]; 1 µM)
"CSc1cc(C)[nH]c(=O)c1CNC(=O)c1cc(-c2cnc(N3CCC4(CC3)COC4)nc2)c2c(c1C)OC(C)([C@H]1CC[C@H](N(C)C)CC1)O2 (relative stereo) [Compound 15, 7-(2-(2-oxa-7-azaspiro[3.5]nonan-7-yl)pyrimidin-5-yl)-2-(trans-4-(dimethylamino)cyclohexyl)-2,4-dimethyl-N-((6-methyl-4-(methylthio)-2-oxo-1,2-dihydropyridin-3-yl)methyl)benzo[d][1,3]dioxole-5-carboxamide]",94.5,99.8,,,≥ 70,30 to 70,30 to 70,30 to 70,≤ 30,≤ 30,,
"CSc1cc(C)[nH]c(=O)c1CNC(=O)c1cc(-c2ccc(N3CC(C)CC(C)C3)nc2)c2c(c1C)OC(C)([C@H]1CC[C@H](N(C)C)CC1)O2 (relative stereo) [Compound 16, 2-(trans-4-(dimethylamino)cyclohexyl)-7-(6-(3,5-dimethylpiperidin-1-yl)pyridin-3-yl)-2,4-dimethyl-N-((6-methyl-4-(methylthio)-2-oxo-1,2-dihydropyridin-3-yl)methyl)benzo[d][1,3]dioxole-5-carboxamide]",69,92.4,,,≥ 70,30 to 70,30 to 70,≥ 70,≤ 30,≤ 30,,
"CSc1cc(C)[nH]c(=O)c1CNC(=O)c1cc(-c2ccc(N3CCSCC3)nc2)c2c(c1C)OC(C)([C@H]1CC[C@H](N(C)C)CC1)O2 (relative stereo) [Compound 17, 2-(trans-4-(dimethylamino)cyclohexyl)-2,4-dimethyl-N-((6-methyl-4-(methylthio)-2-oxo-1,2-dihydropyridin-3-yl)methyl)-7-(6-thiomorpholinopyridin-3-yl)benzo[d][1,3]dioxole-5-carboxamide]",93.8,99.3,,,≥ 70,30 to 70,≤ 30,30 to 70,≤ 30,30 to 70,,
"CSc1cc(C)[nH]c(=O)c1CNC(=O)c1cc(-c2ccoc2)c2c(c1C)OC(C)([C@H]1CC[C@H](N(C)C)CC1)O2 (relative stereo) [Compound 18, 2-(trans-4-(dimethylamino)cyclohexyl)-7-(furan-3-yl)-2,4-dimethyl-N-((6-methyl-4-(methylthio)-2-oxo-1,2-dihydropyridin-3-yl)methyl)benzo[d][1,3]dioxole-5-carboxamide]",87.6,99.8,,,≥ 70,30 to 70,≤ 30,30 to 70,≤ 30,≤ 30,,
"CSc1cc(C)[nH]c(=O)c1CNC(=O)c1cc(-c2ccc(Cl)s2)c2c(c1C)OC(C)([C@H]1CC[C@H](N(C)C)CC1)O2 (relative stereo) [Compound 19, 7-(5-chlorothiophen-2-yl)-2-(trans-4-(dimethylamino)cyclohexyl)-2,4-dimethyl-N-((6-methyl-4-(methylthio)-2-oxo-1,2-dihydropyridin-3-yl)methyl)benzo[d][1,3]dioxole-5-carboxamide]",78.7,98.7,,,≥ 70,30 to 70,30 to 70,30 to 70,≤ 30,≤ 30,,

# More lines, main results first:
inhibition at 0.005 µM [1] [%],inhibition at 0.005 µM [2] [%],inhibition at 0.01 µM ([1]; 10nM test substance) [%],inhibition at 0.01 µM ([2]; 10nM test substance) [%],Compound,inhibition at 1 µM [3] [%],inhibition at 1 µM [4] [%],inhibition at 1 µM [5] [%],inhibition at 1 µM [6] [%],inhibition at 1 µM [7] [%],inhibition at 1 µM [8] [%],% inhibition rate LoVo ([3]; 1 µM),% inhibition rate G401 ([4]; 1 µM)
20.6,11.3,,,"CSc1cc(C)[nH]c(=O)c1CNC(=O)c1cc(-c2cnc(N3CCCCC3)nc2)c2c(c1C)OC(C)([C@H]1CC[C@H](N(C)CC(F)(F)F)CC1)O2 (relative stereo) [Compound 21, 2,4-dimethyl-2-(trans-4-(methyl(2,2,2-trifluoroethyl)amino)cyclohexyl)-N-((6-methyl-4-(methylthio)-2-oxo-1,2-dihydropyridin-3-yl)methyl)-7-(2-(piperidin-1-yl)pyrimidin-5-yl)benzo[d][1,3]dioxole-5-carboxamide]",≥ 70,≤ 30,≤ 30,≤ 30,≤ 30,≤ 30,,
53.1,81,,,"CSc1cc(C)[nH]c(=O)c1CNC(=O)c1cc(-c2cnc(N(C)C)nc2)c2c(c1C)OC(C)([C@H]1CC[C@H](N(C)CC(F)(F)F)CC1)O2 (relative stereo) [Compound 22, 7-(2-(dimethylamino)pyrimidin-5-yl)-2,4-dimethyl-2-(trans-4-(methyl(2,2,2-trifluoroethyl)amino)cyclohexyl)-N-((6-methyl-4-(methylthio)-2-oxo-1,2-dihydropyridin-3-yl)methyl)benzo[d][1,3]dioxole-5-carboxamide]",≥ 70,30 to 70,30 to 70,≤ 30,≤ 30,≤ 30,,
87.3,99.6,,,"COCCN(C)[C@H]1CC[C@H](C2(C)Oc3c(-c4cnc(N(C)C)nc4)cc(C(=O)NCc4c(SC)cc(C)[nH]c4=O)c(C)c3O2)CC1 (relative stereo) [Compound 26, 7-(2-(dimethylamino)pyrimidin-5-yl)-2-(trans-4-((2-methoxyethyl)(methyl)amino)cyclohexyl)-2,4-dimethyl-N-((6-methyl-4-(methylthio)-2-oxo-1,2-dihydropyridin-3-yl)methyl)benzo[d][1,3]dioxole-5-carboxamide]",≥ 70,30 to 70,≤ 30,30 to 70,≤ 30,≤ 30,,
80.2,95.8,,,"COCCN(C)[C@H]1CC[C@H](C2(C)Oc3c(-c4ccc(N5CCC(F)(F)CC5)nc4)cc(C(=O)NCc4c(SC)cc(C)[nH]c4=O)c(C)c3O2)CC1 (relative stereo) [Compound 27, 7-(6-(4,4-difluoropiperidin-1-yl)pyridin-3-yl)-2-(trans-4-((2-methoxyethyl)(methyl)amino)cyclohexyl)-2,4-dimethyl-N-((6-methyl-4-(methylthio)-2-oxo-1,2-dihydropyridin-3-yl)methyl)benzo[d][1,3]dioxole-5-carboxamide]",≥ 70,30 to 70,30 to 70,30 to 70,≤ 30,≤ 30,,
77.3,99.4,,,"COCCN(C)[C@H]1CC[C@H](C2(C)Oc3c(-c4ccc(OC)nc4)cc(C(=O)NCc4c(SC)cc(C)[nH]c4=O)c(C)c3O2)CC1 (relative stereo) [Compound 28, 2-(trans-4-((2-methoxyethyl)(methyl)amino)cyclohexyl)-7-(6-methoxypyridin-3-yl)-2,4-dimethyl-N-((6-methyl-4-(methylthio)-2-oxo-1,2-dihydropyridin-3-yl)methyl)benzo[d][1,3]dioxole-5-carboxamide]",30 to 70,30 to 70,≤ 30,30 to 70,≤ 30,≤ 30,,
46.8,96.1,78.2,99.6,"CSc1cc(C)[nH]c(=O)c1CNC(=O)c1cc(-c2ccc(N3C[C@@H](C)O[C@@H](C)C3)nc2)c2c(c1C)OC(C)(C1CCN(CC(F)(F)F)CC1)O2 (single isomer, unassigned) [Compound 44]",,,30 to 70,30 to 70,≤ 30,30 to 70,+++ (+++: ≥70%),+++ (+++: ≥70%)

# Reference: EP4740948A1 (Dong Wha Pharm. Co., Ltd., priority 2023, dated 2025)
